Data on two compounds can be found in patent publication US9677140B2, “Molecular diagnostic test for cancer” (Almac Diagnostics Limited, priority 2010, dated 2017).

For assay [1], the system named is HCC1937 BRCA1 mutant and HCC1937-BR (BRCA1 corrected) breast cancer cell-lines. The assay is described as follows: Cell viability assay (CellTitre-Glo), determination of cisplatin sensitivity. Format: cell-based. The following applies: HCC1937 BRCA1 mutant cell-line relative to the BRCA1 corrected cell-line (HCC1937-BR); 96 hours exposure. The method, then: For measurement of sensitivity to cisplatin, exponentially growing cells were seeded into 96-well plates. […] Cells were incubated in the presence of drug for 96 hours following which time the viability of the cells was assessed using the Promega CellTitre-Glo luminescent cell viability assay. The sensitivity of the cells was calculated as the percentage of vehicle (DMSO) control.

The test system is the same in assay [2]. The following applies: HCC1937 BRCA1 mutant cell-line relative to the BRCA1 corrected cell-line (HCC1937-BR); constant exposure, 12-14 days.
Protocol: The HCC1937 parental, HCC1937-EV and HCC1937-BR cell-lines were kindly donated by Professor Paul Harkin from Queen's University College Belfast (QUB). The cell-lines were routinely maintained in RPMI-1640 medium supplemented with 50 U penicillin/ml, 50 μg streptomycin/ml, 2 mM glutamine, 1 mM Sodium Pyruvate and 20% (v/v) fetal bovine serum (FBS). The HCC1937-EV and HCC937-BR cell-lines also required 0.2 ml/mg geneticin. Cell-lines were cultured at 37° C. with a humidified atmosphere of 5% CO2.
Twenty-four hours following seeding the cells were exposed to medium containing increasing doses of drug. Cell medium was replenished every 4-5 days. After 12-14 days the cells were fixed in methanol, stained with crystal violet and counted. The percentage survival of control for a given dose was calculated as the plating efficiencies for that dose divided by the plating efficiencies of vehicle-treated cells. Survival curves and half maximal inhibitory concentration (IC50) values were calculated using GraphPad Prism.

Turning to `N.N.[Cl][Pt][Cl]` [cisplatin], in assay [1], the “sensitivity to cisplatin (cell viability)” value is listed as “more sensitive”.

Turning to `O=C(c1cc(Cc2n[nH]c(=O)c3ccccc23)ccc1F)N1CCCNCC1` [KU0058948], in assay [2], the “sensitivity to PARP-1 inhibitor (clonogenic survival)” value is “more sensitive”.
